Reference: patent publication US9346777B2, “Antiprotozoal compounds” (MediSynergics, LLC, priority 2012, dated 2016)

System: T. brucei brucei
Assay: T. brucei brucei growth inhibition assay (bloodstream forms, CellTiter-Glo ATP-bioluminescence)
Format: cell-based
Conditions: Trypanosoma brucei; bloodstream forms of T. brucei brucei clone 427-221a; 40 hours at 37° C.; final DMSO 0.5%; 95% confidence intervals in parentheses
Experimental: The growth inhibition assay for T. brucei brucei was conducted as described previously by Z. B. Mackey et al (Kenny K. H. Ang, Joseline Ratnam, Jiri Gut, Jennifer Legac, Elizabeth Hansell, Zachary B. Mackey, Katarzyna M. Skrzypczynska, Anjan Debnath, Juan C. Engel, Philip J. Rosenthal, James H. McKerrow, Michelle R. Arkin, Adam R. Renslo (2011) “Mining a Cathepsin Inhibitor Library for New Antiparasitic Drug Leads”, PLoS Neglected Tropical Diseases, 5(5):e1023). Bloodstream forms of the monomorphic T. brucei brucei clone 427-221a were grown in complete HMI-9 medium containing 10% FBS, 10% Serum Plus medium (Sigma Inc., St. Louis, Mo., USA), 50 U/mL penicillin and […] (Invitrogen) at 37° C. under a humidified atmosphere and 5% CO2. Inhibitor stocks were prepared in 100% DMSO and screened at […] for percent inhibition values or serially diluted from […] in 10% DMSO for IC50 determinations. […] of diluted parasites ([…]) in sterile Greiner 96-well flat white opaque culture plates such that the final DMSO concentration was 0.5%. The 0% inhibition control wells contained 0.5% DMSO while 100% inhibition control wells contained […] thimerosal (Sigma). After compound addition, plates were incubated for 40 hours at 37° C. At the end of the incubation period, […] of CellTiter-Glo™ reagent (Promega Inc., Madison, Wis., USA) was added to each well and plates were placed on an orbital shaker at room temperature for 2 min to induce lysis. After an additional 10 min of incubation without shaking to stabilize the signal, the ATP-bioluminescence of each well was determined using an Analyst HT plate reader (Molecular Devices, Sunnyvale, Calif., USA). Raw values were converted to log 10 and percentage inhibition calculated relative to the controls. IC50 curve fittings were performed with Prism 4 software as above. Pentamidine was used as a comparator in the assay.

| IC50 [µM] | SMILES |
| --- | --- |
| 32 | CN(C)CCCC1(c2ccc(F)cc2)OCc2cc(C(=N)N)ccc21 (centres unmarked) [Example 1, 1-[3-(dimethylamino)propyl]-1-(4-fluorophenyl)-1,3-dihydro-2-benzofuran-5-carboximidamide] |
| 24 | CN(C)CCCC1(c2ccc(F)cc2)OCc2cc(C(=N)N3CCCC3)ccc21 (centres unmarked) [Example 6, 1-[1-[3-(dimethylamino)propyl]-1-(4-fluorophenyl)-1,3-dihydro-2-benzofuran-5-yl]-1-(pyrrolidin-1-yl)methan-imine] |
| 1.4 | CN(C)CCCC1(c2ccc(F)cc2)OCc2cc(-c3ncc[nH]3)ccc21 (centres unmarked) [Example 7] |
| 8.8 | CN(C)CCCC1(c2ccc(F)cc2)OCc2cc(C(=N)NCc3ccccc3)ccc21 (centres unmarked) [Example 4, N-benzyl-1-[3-(dimethylamino)propyl]-1-(4-fluorophenyl)-1,3-dihydro-2-benzofuran-5-carboximidamide] |
| 37 | CN(C)CCCC1(c2ccc(F)cc2)OCc2cc(C(=N)N3CCOCC3)ccc21 (centres unmarked) [Example 5, 1-[1-[3-(dimethylamino)propyl]-1-(4-fluorophenyl)-1,3-dihydro-2-benzofuran-5-yl]-1-(morpholin-4-yl)methan-imine] |
